From article PMC4505424, “A Novel Mechanism for Binding of Galactose-terminated Glycans by the C-type Carbohydrate Recognition Domain in Blood Dendritic Cell Antigen 2” (The Journal of Biological Chemistry, 2015)

Tests used:
[1] = molecular target: T1, BDCA-2 CRD (blood dendritic cell antigen 2) (Homo sapiens, UniProt Q8WTT0); assay: solid-phase competition with […]-Man-BSA on immobilised CRD; type: binding; conditions: half-maximal inhibition, Ca2+-dependent
T1 construct: gene CLEC4C; extracellular C-type carbohydrate recognition domain; expected mass of CRD 17,100; monomer
T1 sequence (Q8WTT0 67-213): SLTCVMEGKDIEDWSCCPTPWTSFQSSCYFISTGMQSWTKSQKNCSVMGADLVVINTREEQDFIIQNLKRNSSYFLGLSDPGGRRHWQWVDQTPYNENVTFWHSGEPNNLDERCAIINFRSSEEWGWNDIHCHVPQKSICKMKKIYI

[2] = molecular target: T1, BDCA-2 CRD (blood dendritic cell antigen 2); assay: as above; type: binding; conditions: half-maximal inhibition; Ca2+-dependent

| Compound | Ki [1] [µM] | KI relative to KI for α-methyl mannoside [2] | other results |
| --- | --- | --- | --- |
| CC(=O)N[C@H]1[C@H](O[C@@H]2C(O)O[C@H](CO)[C@@H](O)[C@@H]2O)O[C@H](CO)[C@@H](O[C@@H]2O[C@H](CO)[C@H](O)[C@H](O)[C@H]2O)[C@@H]1O (some centres unmarked) [Galβ1–4GlcNAcβ1–2Man] |  |  | Ki ([1]; extended site, mannose at Ca2+): 9.2 ± 1.4 µM |
| CO[C@H]1O[C@H](CO)[C@@H](O)[C@H](O)[C@H]1NC(C)=O [GlcNAc (α-methyl glycoside)] |  | including glucose and GlcNAc, as well as L-fucose, also compete for binding |  |
| CO[C@@H]1O[C@@H](C)[C@@H](O)[C@@H](O)[C@@H]1O [L-fucose (α-methyl glycoside)] |  | including glucose and GlcNAc, as well as L-fucose, also compete for binding |  |
| CO[C@H]1O[C@H](CO)[C@H](O)[C@H](O)[C@H]1O [galactose (α-methyl glycoside)] |  | Comparison of mannose and galactose as competing ligands confirmed the affinity chromatography results |  |
| CO[C@H]1O[C@H](CO)[C@@H](O)[C@H](O)[C@H]1O [glucose (α-methyl glycoside)] |  | including glucose and GlcNAc, as well as L-fucose, also compete for binding |  |

Now from value to compound, other results behind:

| Ki [1] [µM] | Compound | KI relative to KI for α-methyl mannoside [2] | other results |
| --- | --- | --- | --- |
| 92 ± 12 | CC(=O)N[C@H]1[C@H](O[C@@H]2C(O)O[C@H](CO)[C@@H](O)[C@@H]2O)O[C@H](CO)[C@@H](O)[C@@H]1O (some centres unmarked) [GlcNAcβ1–2Man] |  |  |
| 0.46 ± 0.01 | CC(=O)N[C@H]1[C@H](O[C@H]2[C@H](O)[C@@H](NC(C)=O)C(O)O[C@@H]2CO)O[C@H](CO)[C@@H](O[C@@H]2O[C@H](CO[C@H]3O[C@H](CO)[C@@H](O)[C@H](O)[C@@H]3O[C@@H]3O[C@H](CO)[C@@H](O[C@@H]4O[C@H](CO)[C@H](O)[C@H](O)[C@H]4O)[C@H](O)[C@H]3NC(C)=O)[C@@H](O)[C@H](O[C@H]3O[C@H](CO)[C@@H](O)[C@H](O)[C@@H]3O[C@@H]3O[C@H](CO)[C@@H](O[C@@H]4O[C@H](CO)[C@H](O)[C@H](O)[C@H]4O)[C@H](O)[C@H]3NC(C)=O)[C@@H]2O)[C@@H]1O (some centres unmarked) [asialo biantennary glycan] |  |  |
| 320 ± 20 | CC(=O)N[C@H]1[C@H](O[C@H]2[C@H](O)[C@@H](NC(C)=O)C(O)O[C@@H]2CO)O[C@H](CO)[C@@H](O[C@@H]2O[C@H](CO[C@H]3O[C@H](CO)[C@@H](O)[C@H](O)[C@@H]3O[C@@H]3O[C@H](CO)[C@@H](O[C@@H]4O[C@H](CO[C@]5(C(=O)O)C[C@H](O)[C@@H](NC(C)=O)[C@H]([C@H](O)[C@H](O)CO)O5)[C@H](O)[C@H](O)[C@H]4O)[C@H](O)[C@H]3NC(C)=O)[C@@H](O)[C@H](O[C@H]3O[C@H](CO)[C@@H](O)[C@H](O)[C@@H]3O[C@@H]3O[C@H](CO)[C@@H](O[C@@H]4O[C@H](CO[C@]5(C(=O)O)C[C@H](O)[C@@H](NC(C)=O)[C@H]([C@H](O)[C@H](O)CO)O5)[C@H](O)[C@H](O)[C@H]4O)[C@H](O)[C@H]3NC(C)=O)[C@@H]2O)[C@@H]1O (some centres unmarked) [disialylated oligosaccharide] |  |  |
